This is an account of results in patent US20080312581A1, “Peptosomes for Use in Acoustically Mediated Intracellular Drug Delivery in vivo” (Biovaluation & Analysis, Inc., priority 2007, published 2008).

The assay relates to Henrietta Lacks (HeLa) cells and human aortic smooth muscle cells (AoSMC). Description: Ultrasound-mediated peptosome rupture and intracellular calcein delivery, flow cytometry. In kind it is cell-based. Conditions: calcein released from peptosomes, contrast agent present. The text has this:
Ultrasound. Ultrasonic energy is produced using an immersible, focused, piezoceramic transducer. In this experimental system, two different matching resistance networks are necessary, allowing production of sound at 1.0 MHz and 3.0 MHz, similar to a method known in the art (Guzmán et al., 2001a, 2001b, 2002, and 2003; and […] et al., 2006). A sinusoidal waveform is produced by, for example, programmable waveform generators (Stanford Research Instruments, Sunnyvale, Calif.) used in conjunction to control pulse length, frequency, and peak-to-peak voltage. The sinusoidal waveform is amplified by an RF broadband power amplifier (Electronic Navigation Industries, Rochester, N.Y.) before passing through a matching network and controlling the response of the transducer. The transducer is housed in a polycarbonate tank (FIG. 11 [601]) -34.5×32×40 cm; containing approximately 34 liters of deionized, distilled, and partially degassed water at room temperature (i.e., 22° C. to 23° C.). A thick acoustic absorber is mounted opposite the transducer to minimize standing-wave formation (not illustrated). […] A metal rod (606) is immediately inserted into the open end of the sample chamber and then attached to the three-axis positioning system (603), placing the sample in the desired location as determined by the hydrophone (604). […]

Turning to `O=C(O)CN(CC(=O)O)Cc1cc2c(cc1O)Oc1cc(O)c(CN(CC(=O)O)CC(=O)O)cc1C21OC(=O)c2ccccc21` [calcein, Calcein], the “calcein uptake into cells” value reads like this: (mild ultrasound conditions) “low levels”; (moderate ultrasound conditions) “as many as one-third of cells”.
